Earlier results, collected in PubChem BioAssay AID1259409 (Chemical Carcinogenesis Research Information System (CCRIS), 2018).

System: rodent chemically induced tumor inhibition, incidence and multiplicity
Test: CCRIS tumor inhibitor studies

O=c1cc(-c2ccccc2)oc2c1ccc1ccccc12
tumour outcome (control, treated, inhibition, significance) (Carcinogen: 2-AMINO-1-METHYL-6-PHENYLIMIDAZO[4,5-B]PYRIDINE [105650-23-5], Dose [Inhibitor]: 1,000 PPM IN DIET FOR 4 WK BEGINNING WK PRIOR TO FIRST CARCINOGEN DOSE (STUDY DURATION: 25 WK), Route [Inhibitor]: ORAL, Species: RAT, Strain/Sex: SPRAGUE-DAWLEY/FEMALE, Target Tissue: Type of Lesion: MAMMARY GLAND: FIBROADENOMA OR DUCTAL CARCINOMA, Dose [Carcinogen]: 85 MG/KG BW 2/WK FOR 4 WK (STUDY DURATION: 25 WK), Promoter: NONE): 63%, 36%, 42%, not significant | tumour outcome (control, treated, inhibition, significance) (Carcinogen: 6-HYDROXYMETHYLBENZO[A]PYRENE, 21247-98-3, Dose [Inhibitor]: 100 UG IN 0.2 ML ACETONE ONCE 5 MINUTES BEFORE CARCINOGEN TREATMENT (STUDY DURATION: 31 WK), Route [Inhibitor]: DERMAL, Species: MOUSE, Strain/Sex: CD-1/FEMALE, Target Tissue: Type of Lesion: SKIN: PAPILLOMA, Dose [Carcinogen]: 400 NMOL IN 0.2 ML ACETONE ONCE, Promoter: 12-O-TETRADECANOYLPHORBOL-13-ACETATE, 16561-29-8): 57%, 60%, -5%, not calculated | tumour outcome (control, treated, inhibition, significance) (Carcinogen: 6-METHYLBENZO[A]PYRENE, 2381-39-7, Dose [Inhibitor]: 100 UG IN 0.2 ML ACETONE ONCE 5 MINUTES BEFORE CARCINOGEN TREATMENT (STUDY DURATION: 31 WK), Route [Inhibitor]: DERMAL, Species: MOUSE, Strain/Sex: CD-1/FEMALE, Target Tissue: Type of Lesion: SKIN: PAPILLOMA, Dose [Carcinogen]: 400 NMOL IN 0.2 ML ACETONE ONCE, Promoter: 12-O-TETRADECANOYLPHORBOL-13-ACETATE, 16561-29-8): 73%, 40%, 44%, not calculated | tumour outcome (control, treated, inhibition, significance) (Carcinogen: 7,12-DIMETHYLBENZ[A]ANTHRACENE, 57-97-6, Dose [Inhibitor]: 0, 0.37 NMOL IN 0.2 ML ACETONE APPLIED 5 MIN PRIOR TO CARCINOGEN (STUDY DURATION: 21 WK), Route [Inhibitor]: DERMAL, Species: MOUSE, Strain/Sex: SENCAR/FEMALE, Target Tissue: Type of Lesion: SKIN: PAPILLOMA, Dose [Carcinogen]: 40 NMOL IN 0.2 ML ACETONE ONCE, Promoter: 12-O-TETRADECANOYLPHORBOL-13-ACETATE, 16561-29-8): 100%, 100%, 0% | tumour outcome (control, treated, inhibition, significance) (Carcinogen: 7,12-DIMETHYLBENZ[A]ANTHRACENE, 57-97-6, Dose [Inhibitor]: 0, 3.7 NMOL IN 0.2 ML ACETONE APPLIED 5 MIN PRIOR TO CARCINOGEN (STUDY DURATION: 21 WK), Route [Inhibitor]: DERMAL, Species: MOUSE, Strain/Sex: SENCAR/FEMALE, Target Tissue: Type of Lesion: SKIN: PAPILLOMA, Dose [Carcinogen]: 40 NMOL IN 0.2 ML ACETONE ONCE, Promoter: 12-O-TETRADECANOYLPHORBOL-13-ACETATE, 16561-29-8): 100%, 100%, 0% | tumour outcome (control, treated, inhibition, significance) (Carcinogen: 7,12-DIMETHYLBENZ[A]ANTHRACENE, 57-97-6, Dose [Inhibitor]: 0, 37 NMOL IN 0.2 ML ACETONE APPLIED 5 MIN PRIOR TO CARCINOGEN (STUDY DURATION: 21 WK), Route [Inhibitor]: DERMAL, Species: MOUSE, Strain/Sex: SENCAR/FEMALE, Target Tissue: Type of Lesion: SKIN: PAPILLOMA, Dose [Carcinogen]: 10 NMOL IN 0.2 ML ACETONE ONCE, Promoter: 12-O-TETRADECANOYLPHORBOL-13-ACETATE, 16561-29-8): 79%, 60%, 24%, not calculated | tumour outcome (control, treated, inhibition, significance) (Carcinogen: 7,12-DIMETHYLBENZ[A]ANTHRACENE, 57-97-6, Dose [Inhibitor]: 0, 37 NMOL IN 0.2 ML ACETONE APPLIED 5 MIN PRIOR TO CARCINOGEN (STUDY DURATION: 21 WK), Route [Inhibitor]: DERMAL, Species: MOUSE, Strain/Sex: SENCAR/FEMALE, Target Tissue: Type of Lesion: SKIN: PAPILLOMA, Dose [Carcinogen]: 40 NMOL IN 0.2 ML ACETONE ONCE, Promoter: 12-O-TETRADECANOYLPHORBOL-13-ACETATE, 16561-29-8): 100%, 87%, 13%, not calculated | tumour outcome (control, treated, inhibition, significance) (Carcinogen: 7,12-DIMETHYLBENZ[A]ANTHRACENE, 57-97-6, Dose [Inhibitor]: 0, 370 NMOL IN 0.2 ML ACETONE APPLIED 5 MIN PRIOR TO CARCINOGEN (STUDY DURATION: 21 WK), Route [Inhibitor]: DERMAL, Species: MOUSE, Strain/Sex: SENCAR/FEMALE, Target Tissue: Type of Lesion: SKIN: PAPILLOMA, Dose [Carcinogen]: 10 NMOL IN 0.2 ML ACETONE ONCE, Promoter: 12-O-TETRADECANOYLPHORBOL-13-ACETATE, 16561-29-8): 79%, 46%, 42%, not calculated | tumour outcome (control, treated, inhibition, significance) (Carcinogen: 7,12-DIMETHYLBENZ[A]ANTHRACENE, 57-97-6, Dose [Inhibitor]: 0, 370 NMOL IN 0.2 ML ACETONE APPLIED 5 MIN PRIOR TO CARCINOGEN (STUDY DURATION: 21 WK), Route [Inhibitor]: DERMAL, Species: MOUSE, Strain/Sex: SENCAR/FEMALE, Target Tissue: Type of Lesion: SKIN: PAPILLOMA, Dose [Carcinogen]: 40 NMOL IN 0.2 ML ACETONE ONCE, Promoter: 12-O-TETRADECANOYLPHORBOL-13-ACETATE, 16561-29-8): 100%, 97%, 3%, not calculated | tumour outcome (control, treated, inhibition, significance) (Carcinogen: 7,12-DIMETHYLBENZ[A]ANTHRACENE, 57-97-6, Dose [Inhibitor]: 25 UG/MOUSE APPLIED 6 HR BEFORE, 5 MIN BEFORE, AND 6 HR AFTER DMBA (STUDY DURATION: 28 WK), Route [Inhibitor]: DERMAL, Species: MOUSE, Strain/Sex: CD-1/FEMALE, Target Tissue: Type of Lesion: SKIN: PAPILLOMA, Dose [Carcinogen]: 2.56 UG APPLIED ONCE 5 MIN AFTER INHIBITOR, Promoter: 12-O-TETRADECANOYLPHORBOL-13-ACETATE, 16561-29-8): 82%, 22%, 73%, not calculated | tumour outcome (control, treated, inhibition, significance) (Carcinogen: 7,12-DIMETHYLBENZ[A]ANTHRACENE, 57-97-6, Dose [Inhibitor]: 25 UG/MOUSE APPLIED ONCE 5 MIN BEFORE DMBA (STUDY DURATION: 28 WK), Route [Inhibitor]: DERMAL, Species: MOUSE, Strain/Sex: CD-1/FEMALE, Target Tissue: Type of Lesion: SKIN: PAPILLOMA, Dose [Carcinogen]: 2.56 UG APPLIED ONCE 5 MIN AFTER INHIBITOR, Promoter: 12-O-TETRADECANOYLPHORBOL-13-ACETATE, 16561-29-8): 82%, 48%, 41%, not calculated | tumour outcome (control, treated, inhibition, significance) (Carcinogen: 7,12-DIMETHYLBENZ[A]ANTHRACENE, 57-97-6, Dose [Inhibitor]: 100 UG IN 0.2 ML ACETONE ONCE 5 MIN BEFORE CARCINOGEN TREATMENT (STUDY DURATION: 31 WK), Route [Inhibitor]: DERMAL, Species: MOUSE, Strain/Sex: CD-1/FEMALE, Target Tissue: Type of Lesion: SKIN: PAPILLOMA, Dose [Carcinogen]: 10 NMOL IN 0.2 ML ACETONE ONCE, Promoter: 12-O-TETRADECANOYLPHORBOL-13-ACETATE, 16561-29-8): 90%, 38%, 58%, not calculated
